Results reported in US20120129833A1, “CYCLIC KETOENOLS FOR THERAPY” (BAYER PHARMA AKTIENGESELLSCHAFT, priority 2010, published 2012).

Tests used:
[1] = target: T1, ACC2 (acetyl-CoA carboxylase 2) (Homo sapiens, UniProt O00763); experiment: Human ACC2 enzyme assay (HTRF ADP detection); type: biochemical; settings: 20 μM acetyl-CoA, 15 min pre-incubation, 20 min at 22° C.; read-out: ACC 2 IC50
T1 construct: catalogue no; 50201, amino acids 39—end, expressed in baculovirus-transfected Sf9 insect cells; His (C); purchased BPS Bioscience (San Diego, Calif.) 50201; host or cells: baculovirus-transfected Sf9 insect cells
T1 sequence (O00763 39-2458 limits assumed): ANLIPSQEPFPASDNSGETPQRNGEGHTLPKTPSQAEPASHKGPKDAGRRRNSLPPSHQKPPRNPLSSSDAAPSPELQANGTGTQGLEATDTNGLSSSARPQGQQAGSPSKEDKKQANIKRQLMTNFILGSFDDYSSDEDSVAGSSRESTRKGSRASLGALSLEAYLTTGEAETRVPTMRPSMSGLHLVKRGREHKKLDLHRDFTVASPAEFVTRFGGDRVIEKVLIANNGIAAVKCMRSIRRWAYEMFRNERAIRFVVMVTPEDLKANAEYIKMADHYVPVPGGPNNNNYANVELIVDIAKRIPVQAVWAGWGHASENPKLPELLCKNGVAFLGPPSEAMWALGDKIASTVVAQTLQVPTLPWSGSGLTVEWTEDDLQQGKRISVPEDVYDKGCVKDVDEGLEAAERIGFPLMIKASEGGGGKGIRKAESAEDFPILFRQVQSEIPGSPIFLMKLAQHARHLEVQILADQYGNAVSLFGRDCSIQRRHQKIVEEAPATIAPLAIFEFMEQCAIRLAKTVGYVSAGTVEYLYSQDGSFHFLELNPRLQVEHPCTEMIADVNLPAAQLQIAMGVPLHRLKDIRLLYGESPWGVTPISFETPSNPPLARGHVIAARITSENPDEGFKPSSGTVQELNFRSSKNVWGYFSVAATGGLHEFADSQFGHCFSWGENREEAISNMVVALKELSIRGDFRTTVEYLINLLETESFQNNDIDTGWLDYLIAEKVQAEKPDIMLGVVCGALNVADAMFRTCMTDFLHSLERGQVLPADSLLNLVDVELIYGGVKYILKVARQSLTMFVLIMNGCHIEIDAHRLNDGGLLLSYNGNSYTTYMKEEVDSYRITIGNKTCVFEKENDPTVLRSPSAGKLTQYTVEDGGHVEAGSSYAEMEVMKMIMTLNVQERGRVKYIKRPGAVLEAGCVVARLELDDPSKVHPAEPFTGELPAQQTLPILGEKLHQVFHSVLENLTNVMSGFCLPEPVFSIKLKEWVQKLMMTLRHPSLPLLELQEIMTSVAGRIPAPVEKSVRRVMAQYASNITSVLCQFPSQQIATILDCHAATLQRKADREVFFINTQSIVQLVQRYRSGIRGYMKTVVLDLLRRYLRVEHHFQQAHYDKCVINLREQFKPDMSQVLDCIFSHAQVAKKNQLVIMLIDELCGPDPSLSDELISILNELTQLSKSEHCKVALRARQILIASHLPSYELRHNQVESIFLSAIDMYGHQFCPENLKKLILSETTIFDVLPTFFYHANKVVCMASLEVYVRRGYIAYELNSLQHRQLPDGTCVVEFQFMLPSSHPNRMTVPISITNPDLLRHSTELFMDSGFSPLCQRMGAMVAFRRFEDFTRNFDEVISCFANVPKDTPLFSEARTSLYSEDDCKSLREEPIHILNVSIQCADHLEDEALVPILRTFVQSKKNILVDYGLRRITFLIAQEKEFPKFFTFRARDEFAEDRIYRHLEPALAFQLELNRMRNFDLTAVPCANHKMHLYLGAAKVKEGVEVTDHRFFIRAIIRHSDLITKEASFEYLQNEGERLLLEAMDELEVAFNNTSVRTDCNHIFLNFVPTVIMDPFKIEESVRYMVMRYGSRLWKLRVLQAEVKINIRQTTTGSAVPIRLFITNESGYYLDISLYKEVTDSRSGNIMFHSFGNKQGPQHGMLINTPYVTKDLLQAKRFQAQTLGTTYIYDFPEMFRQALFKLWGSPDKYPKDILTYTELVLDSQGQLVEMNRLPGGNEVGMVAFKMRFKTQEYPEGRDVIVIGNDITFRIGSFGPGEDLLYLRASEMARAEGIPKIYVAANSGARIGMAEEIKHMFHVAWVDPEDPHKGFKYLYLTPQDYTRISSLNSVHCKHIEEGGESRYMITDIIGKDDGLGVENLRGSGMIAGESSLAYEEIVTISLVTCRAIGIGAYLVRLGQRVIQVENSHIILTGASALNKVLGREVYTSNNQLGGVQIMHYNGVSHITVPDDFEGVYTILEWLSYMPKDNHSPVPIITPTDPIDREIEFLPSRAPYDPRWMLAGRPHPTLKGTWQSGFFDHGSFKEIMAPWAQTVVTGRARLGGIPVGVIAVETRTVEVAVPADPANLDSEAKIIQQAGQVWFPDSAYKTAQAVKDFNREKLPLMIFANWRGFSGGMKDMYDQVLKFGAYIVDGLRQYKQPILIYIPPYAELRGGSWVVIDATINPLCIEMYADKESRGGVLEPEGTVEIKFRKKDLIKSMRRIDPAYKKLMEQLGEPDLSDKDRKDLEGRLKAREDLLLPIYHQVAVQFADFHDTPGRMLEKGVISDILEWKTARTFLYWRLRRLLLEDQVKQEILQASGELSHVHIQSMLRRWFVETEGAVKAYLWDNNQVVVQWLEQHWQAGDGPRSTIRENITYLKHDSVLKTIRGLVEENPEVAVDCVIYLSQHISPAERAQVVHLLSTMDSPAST
Experimental: The inhibitory activity of the substances of this invention with regard to acetyl-CoA carboxylase 2 (ACC2) was measured using the ACC2 assay described in the paragraphs below. The basic principle of the assay is the measurement of adenosine diphosphate (ADP), which is formed as a by-product, by means of an HTRF®-based competitive immunoassay (HTRF=Homogeneous Time Resolved Fluorescence).
(§1) The amount of complex of d2-labelled ADP and europium cryptate-labelled anti-ADP antibody was then determined by measuring the resonance energy transfer of europium cryptate to d2.

[2] = target: T2, recombinant human ACC1 (acetyl-CoA carboxylase 1) (Homo sapiens, UniProt Q13085); experiment: Human ACC1 enzyme assay (HTRF ADP detection); type: biochemical; settings: 50 μM ATP, 20 μM acetyl-CoA, 15 min pre-incubation, 20 min at 22° C.; read-out: ACC 1 IC50;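 further: ADP by-product quantified by competitive HTRF immunoassay with europium cryptate anti-ADP antibody and d2-labelled ADP, read after 1 h binding at 22 °C, enzyme near 2.5 ng/µl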
T2 construct: NM_198834, amino acids 39—end; FLAG (C); made in house; host or cells: baculovirus-transfected insect cells (Hi5)
Experimental: The basic principle of the assay is the measurement of adenosine diphosphate (ADP), which is formed as a by-product, by means of an HTRF®-based competitive immunoassay (HTRF=Homogeneous Time Resolved Fluorescence).
as §1

O=C1OC2(CCCCC2)C(O)=C1c1cc(-c2ccc(F)c(F)c2)ccc1Cl [Example 2-25, 3-(4-chloro-3′,4′-difluorobiphenyl-3-yl)-4-hydroxy-1-oxaspiro[4.5]dec-3-en-2-one]
IC50 [1]: > 20 µM | IC50 [2]: 0.442 µM

Cc1ccc(-c2ccc(Cl)cc2)cc1C1=C(O)C2(CCC(OCC(F)(F)F)CC2)NC1=O (stereo not shown) [Example 1-33, 3-(4′-chloro-4-methylbiphenyl-3-yl)-4-hydroxy-8-(2,2,2-trifluoroethoxy)-1-azaspiro[4.5]dec-3-en-2-one]
IC50 [1]: 0.535 µM | IC50 [2]: 0.359 µM

Cc1ccc(-c2ccc(Cl)cc2)cc1C1=C(O)C2(CCC3(CCCO3)CC2)OC1=O (stereo not shown) [Example 2-29, 3-(4′-chloro-4-methylbiphenyl-3-yl)-4-hydroxy-1,9-dioxadispiro[4.2.4.2]tetradec-3-en-2-one]
IC50 [1]: 0.789 µM | IC50 [2]: 0.321 µM

COC1CCCC2(C1)OC(=O)C(c1cc(-c3ccc(Cl)cc3)c(C)cc1C)=C2O (stereo not shown) [Example 2-11, 3-(4′-chloro-4,6-dimethylbiphenyl-3-yl)-4-hydroxy-7-methoxy-1-oxaspiro[4.5]dec-3-en-2-one]
IC50 [1]: 1.55 µM | IC50 [2]: 0.666 µM

CCCC1CCC2(CC1)NC(=O)C(c1cc(-c3ccc(Cl)cc3)ccc1C)=C2O (stereo not shown) [Example 1-83, 3-(4′-chloro-4-methylbiphenyl-3-yl)-4-hydroxy-8-propyl-1-azaspiro[4.5]dec-3-en-2-one]
IC50 [1]: 0.349 µM | IC50 [2]: 0.459 µM

Cc1ccc(-c2ccc(Cl)cc2)c(C)c1C1=C(O)C2(CCCC2)OC1=O [Example 2-2, 3-(4′-chloro-2,4-dimethylbiphenyl-3-yl)-4-hydroxy-1-oxaspiro[4.4]non-3-en-2-one]
IC50 [1]: 5.28 µM | IC50 [2]: 0.26 µM

Cc1ccc(-c2ccc(Cl)cc2)cc1C1=C(O)C2(CCCCCC2)NC1=O [Example 1-26, 3-(4′-chloro-4-methylbiphenyl-3-yl)-4-hydroxy-1-azaspiro[4.6]undec-3-en-2-one]
IC50 [1]: 1.25 µM | IC50 [2]: 0.54 µM

O=C1C(c2cc(-c3ccc(F)c(Cl)c3)ccc2Cl)C(=O)N2CCCCN12 [Example 8-4, 2-(3′,4-dichloro-4′-fluorobiphenyl-3-yl)tetrahydro-1H-pyrazolo[1,2-a]pyridazine-1,3(2H)-dione]
IC50 [1]: > 20 µM | IC50 [2]: 3.18 µM

Cc1ccc(-c2ccc(Cl)cc2)cc1C1=C(O)C2(CCC3(CC2)OCCCO3)NC1=O [Example 1-59, 3-(4′-chloro-4-methylbiphenyl-3-yl)-4-hydroxy-9,13-dioxa-1-azadispiro[4.2.5.2]pentadec-3-en-2-one]
IC50 [1]: 5.2 µM | IC50 [2]: 0.427 µM

Cc1ccc(-c2ccc(Cl)cc2)cc1C1=C(O)C2(CCCCCCC2)NC1=O [Example 1-23, 3-(4′-chloro-4-methylbiphenyl-3-yl)-4-hydroxy-1-azaspiro[4.7]dodec-3-en-2-one]
IC50 [1]: 0.485 µM | IC50 [2]: 0.584 µM

O=C1OC2(CCCC2)C(O)=C1c1cc(-c2cc(F)c(F)c(F)c2)ccc1Cl [Example 2-24, 3-(4-chloro-3′,4′,5′-trifluorobiphenyl-3-yl)-4-hydroxy-1-oxaspiro[4.4]non-3-en-2-one]
IC50 [1]: > 20 µM | IC50 [2]: 0.997 µM

Cc1ccc(-c2cccc(Cl)c2)cc1C1=C(O)C2(CCCCCC2)OC1=O [Example 2-50, 3-(3′-chloro-4-methylbiphenyl-3-yl)-4-hydroxy-1-oxaspiro[4.6]undec-3-en-2-one]
IC50 [1]: 8.59 µM | IC50 [2]: 0.903 µM

O=C1C(c2cc(-c3ccc(Cl)c(Cl)c3)ccc2Cl)C(=O)N2CCOCCN12 [Example 8-10, 8-(3′,4,4′-trichlorobiphenyl-3-yl)tetrahydro-7H-pyrazolo[1,2-d][1,4,5]oxadiazepine-7,9(8H)-dione]
IC50 [1]: > 20 µM | IC50 [2]: 1.13 µM

Cc1cc(C)c(-c2ccc(Cl)cc2)cc1C1=C(O)C(C)(C)CCC1=O [Example 7-4, 2-(4′-chloro-4,6-dimethylbiphenyl-3-yl)-3-hydroxy-4,4-dimethylcyclohex-2-en-1-one]
IC50 [1]: 3.71 µM | IC50 [2]: 3.67 µM

O=C1C(c2cc(-c3ccc(F)cc3F)ccc2Cl)C(=O)N2CCOCCN12 [Example 8-11, 8-(4-chloro-2′,4′-difluorobiphenyl-3-yl)tetrahydro-7H-pyrazolo[1,2-d][1,4,5]oxadiazepine-7,9(8H)-dione]
IC50 [1]: > 20 µM | IC50 [2]: 0.713 µM

Cc1cc(C)c(-c2ccc(Cl)cc2)cc1C1=C(O)C2(CCCOC2)OC1=O (stereo not shown) [Example 2-46, 3-(4′-chloro-4,6-dimethylbiphenyl-3-yl)-4-hydroxy-1,7-dioxaspiro[4.5]dec-3-en-2-one]
IC50 [1]: 7.61 µM | IC50 [2]: 0.58 µM

Cc1ccc(-c2ccc(Cl)cc2)c(C)c1C1=C(O)C2(CCC(OCC(F)(F)F)CC2)OC1=O (stereo not shown) [Example 2-32, 3-(4′-chloro-2,4-dimethylbiphenyl-3-yl)-4-hydroxy-8-(2,2,2-trifluoroethoxy)-1-oxaspiro[4.5]dec-3-en-2-one]
IC50 [1]: 1.6 µM | IC50 [2]: 0.45 µM

Cc1ccc(-c2ccc(Cl)cc2)cc1C1=C(O)C2(CCOCC2)NC1=O [Example 1-6, 3-(4′-chloro-4-methylbiphenyl-3-yl)-4-hydroxy-8-oxa-1-azaspiro[4.5]dec-3-en-2-one]
IC50 [1]: 5.2 µM | IC50 [2]: 0.3 µM

Cc1ccc(-c2ccc(Cl)cc2)cc1C1=C(O)CC2(CCCCC2)CC1=O [Example 7-2, 3-(4′-chloro-4-methylbiphenyl-3-yl)-4-hydroxyspiro[5.5]undec-3-en-2-one]
IC50 [1]: > 20 µM | IC50 [2]: 0.578 µM

O=C1C(c2cc(-c3ccc(Cl)cc3)ccc2Cl)C(=O)N2C3CCC(C3)N12 (stereo not shown) [Example 8-17, 2-(4,4′-dichlorobiphenyl-3-yl)tetrahydro-1H-5,8-methanopyrazolo[1,2-a]pyridazine-1,3(2H)-dione]
IC50 [1]: > 20 µM | IC50 [2]: 0.913 µM

O=C1NC2(CCOCC2)C(O)=C1c1cc(-c2cc(F)c(F)c(F)c2)ccc1Cl [Example 1-38, 3-(4-chloro-3′,4′,5′-trifluorobiphenyl-3-yl)-4-hydroxy-8-oxa-1-azaspiro[4.5]dec-3-en-2-one]
IC50 [1]: > 20 µM | IC50 [2]: 0.497 µM

CO[C@H]1CC[C@]2(CC1)NC(=O)C(c1cc(-c3ccc(Cl)cc3)ccc1C)=C2O [Example 1-2, (5s,8s)-3-(4′-chloro-4-methylbiphenyl-3-yl)-4-hydroxy-8-methoxy-1-azaspiro[4.5]dec-3-en-2-one]
IC50 [1]: 0.37 µM | IC50 [2]: […]

COC1CCC2(CC1)NC(=O)C(c1c(C)cc(OC(F)(F)F)cc1Cl)=C2O (stereo not shown) [Example C-3, reference compound]
IC50 [1]: > 20 µM | IC50 [2]: > 20 µM

Cc1ccc(-c2ccc(Cl)cc2)cc1C1=C(O)C2(CCC3(CC2)OCCO3)OC1=O [Example 2-15, 11-(4′-chloro-4-methylbiphenyl-3-yl)-12-hydroxy-1,4,9-trioxadispiro[4.2.4.2]tetradec-11-en-10-one]
IC50 [1]: 3.68 µM | IC50 [2]: 0.204 µM

COCC1(C)NC(=O)C(c2cc(-c3ccc(Cl)cc3)ccc2C)=C1O (stereo not shown) [Example 1-46, 3-(4′-chloro-4-methylbiphenyl-3-yl)-4-hydroxy-5-(methoxymethyl)-5-methyl-1,5-dihydro-2H-pyrrol-2-one]
IC50 [1]: 15.8 µM | IC50 [2]: 0.812 µM

Cc1ccc(-c2ccc(Cl)c(C3=C(O)C4(CCOCC4)NC3=O)c2)cc1F [Example 1-39, 3-(4-chloro-3′-fluoro-4′-methylbiphenyl-3-yl)-4-hydroxy-8-oxa-1-azaspiro[4.5]dec-3-en-2-one]
IC50 [1]: > 20 µM | IC50 [2]: 0.663 µM

COC1CCC2(CC1)NC(=O)C(c1c(C)cc(-c3ccc(Cl)cc3)cc1C)=C2O (stereo not shown) [Example C-2, reference compound]
IC50 [1]: > 20 µM | IC50 [2]: > 20 µM

Cc1ccc(-c2ccc(Cl)cc2)cc1C1=C(O)C2(CCCOC2)OC1=O (stereo not shown) [Example 2-9, 3-(4′-chloro-4-methylbiphenyl-3-yl)-4-hydroxy-1,7-dioxaspiro[4.5]dec-3-en-2-one]
IC50 [1]: > 20 µM | IC50 [2]: 0.334 µM

Cc1ccc(-c2ccc(Cl)cc2)cc1C1=C(O)C2(CCOCC2)OC1=O [Example 2-37, 3-(4′-chloro-4-methylbiphenyl-3-yl)-4-hydroxy-1,8-dioxaspiro[4.5]dec-3-en-2-one]
IC50 [1]: > 20 µM | IC50 [2]: 0.342 µM

COCC1CCCC2(C1)NC(=O)C(c1cc(-c3ccc(Cl)cc3)ccc1C)=C2O (stereo not shown) [Example 1-51, 3-(4′-chloro-4-methylbiphenyl-3-yl)-4-hydroxy-7-(methoxymethyl)-1-azaspiro[4.5]dec-3-en-2-one]
IC50 [1]: 4.91 µM | IC50 [2]: 0.473 µM

Cc1ccc(-c2ccc(Cl)cc2)c(C)c1C1=C(O)[C@]2(CC[C@]3(CCCO3)CC2)OC1=O [Example 2-26, (5s,8r)-3-(4′-chloro-2,4-dimethylbiphenyl-3-yl)-4-hydroxy-1,9-dioxadispiro[4.2.4.2]tetradec-3-en-2-one]
IC50 [1]: 4.8 µM | IC50 [2]: 0.26 µM

CC1OC2(CCC3(CC2)NC(=O)C(c2cc(-c4ccc(Cl)cc4)ccc2Cl)=C3O)OC1C (stereo not shown) [Example 1-71, 11-(4,4′-dichlorobiphenyl-3-yl)-12-hydroxy-2,3-dimethyl-1,4-dioxa-9-azadispiro[4.2.4.2]tetradec-11-en-10-one]
IC50 [1]: > 20 µM | IC50 [2]: 0.661 µM

CC1(C)OC(=O)C(c2cc(-c3ccc(Cl)cc3)ccc2Cl)=C(O)C1(C)C [Example 10-1, 3-(4,4′-dichlorobiphenyl-3-yl)-4-hydroxy-5,5,6,6-tetramethyl-5,6-dihydro-2H-pyran-2-one]
IC50 [1]: > 20 µM | IC50 [2]: 1.37 µM

Cc1ccc(-c2ccc(F)c(Cl)c2)cc1C1=C(O)C2(CCCC2)OC1=O [Example 2-23, 3-(3′-chloro-4′-fluoro-4-methylbiphenyl-3-yl)-4-hydroxy-1-oxaspiro[4.4]non-3-en-2-one]
IC50 [1]: > 20 µM | IC50 [2]: 1.37 µM

Cc1ccc(-c2ccc(C(F)(F)F)cc2)cc1C1=C(O)C2(CCCCC2)NC1=O [Example 1-12, 4-hydroxy-3-[4-methyl-4′-(trifluoromethyl)biphenyl-3-yl]-1-azaspiro[4.5]dec-3-en-2-one]
IC50 [1]: 18.2 µM | IC50 [2]: 0.772 µM
